The text below walks through data of article PMC11081523, “An ensemble machine learning model generates a focused screening library for the identification of CDK8 inhibitors” (Protein Science : A Publication of the Protein Society, 2024).

The target of the assay is CDK8 (Homo sapiens, UniProt P49336). Kind of assay: LanthaScreen kinase activity assay (Thermo Fisher SelectScreen kinase profiling service). Type of assay: biochemical. To be noted: for IC50: CDK8, dose-response at 10,000, 3000, 1000, 300 and 100 nM; for inhibition at 10 µM: CDK8 inhibition, compounds tested at 10 μM, read-out: Inhibitory activity (10 μM). Here is the method:
Selected compounds were tested using the Thermo Fisher Scientific SelectScreen kinase profiling service (www.thermofisher.com/selectscreen). The LanthaScreen kinase activity assay was used. In short, a reaction between fluorescein‐labeled substrate and ATP is performed in a container. The reaction is ceased with the addition of EDTA. A terbium‐labeled antibody is added to detect phosphorylated fluorescein‐labeled substrate. A ratio between the acceptor and donor signal is an indicator of the amount of phosphorylated substrate present in the reaction, thereby indicating kinase activity.

CDK8, sequence (P49336 whole entry): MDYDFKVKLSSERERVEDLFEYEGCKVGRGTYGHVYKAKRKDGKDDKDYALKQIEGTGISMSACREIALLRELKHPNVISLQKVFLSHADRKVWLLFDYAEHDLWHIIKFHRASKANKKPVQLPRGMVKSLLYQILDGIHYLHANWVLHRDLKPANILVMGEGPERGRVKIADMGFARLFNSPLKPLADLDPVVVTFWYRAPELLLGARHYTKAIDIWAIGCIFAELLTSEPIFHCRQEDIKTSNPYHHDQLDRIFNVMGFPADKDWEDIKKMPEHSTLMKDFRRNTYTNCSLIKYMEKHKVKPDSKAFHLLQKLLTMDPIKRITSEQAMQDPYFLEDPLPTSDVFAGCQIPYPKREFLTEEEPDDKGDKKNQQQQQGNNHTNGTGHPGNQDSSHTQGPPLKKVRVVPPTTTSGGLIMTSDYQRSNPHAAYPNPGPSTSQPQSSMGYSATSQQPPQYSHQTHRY
CDK8, sequence (P24863 whole entry partner): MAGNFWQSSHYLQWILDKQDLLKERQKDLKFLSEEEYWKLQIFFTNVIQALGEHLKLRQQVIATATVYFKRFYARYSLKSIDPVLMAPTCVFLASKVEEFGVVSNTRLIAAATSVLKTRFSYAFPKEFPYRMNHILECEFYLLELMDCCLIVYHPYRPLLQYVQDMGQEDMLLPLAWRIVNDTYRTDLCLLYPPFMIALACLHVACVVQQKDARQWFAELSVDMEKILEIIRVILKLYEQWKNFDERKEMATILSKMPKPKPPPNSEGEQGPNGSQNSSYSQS

Regarding `CCc1cc2c(N3CCCC(C(=O)N4CCN(c5ccc(F)cc5)CC4)C3)ncnc2s1` (stereo not drawn) [G887‐0711], inhibition was half-maximal at 1.16 µM (IC50) and the inhibition at 10 µM is > 90%.

As to `COc1ccc2ncc(C#N)c(N3CCC(C(=O)Nc4ccc(F)c(C)c4)CC3)c2c1` [L483‐0192], the IC50 – broadly, the concentration that inhibits the measured activity by half – came to 1.84 µM and the inhibition at 10 µM amounted to 71%.

Take `CC1CCN(C(=O)c2ccc3ncnc(N4CCCCC4)c3c2)CC1` [M628‐0340]: the IC50 stood at 1.92 µM and the inhibition at 10 µM worked out at 77%.

`CCn1cc(-c2ccncc2)cc1C(=O)N1CCN(c2ccc(Cl)cc2)CC1` [P076‐1220]: the midpoint of inhibition, the IC50, lay at 4.44 µM and the inhibition at 10 µM came out at 71%.

Turning to `CCCn1cc(-c2ccncc2)cc1C(=O)N1CCC(C)CC1` [P076‐1448], the IC50 amounted to 2.26 µM and the inhibition at 10 µM came out at 73%.

On to `Cc1ccc(NC(=O)Nc2cnn(-c3ncncc3N3CCOCC3)c2)cc1C` [T479‐0984], for which the IC50 came to 0.0999 µM and the inhibition at 10 µM is > 90%.
